Target: T1, Recombinant human proMMP13 (collagenase 3) (Homo sapiens, UniProt P45452)
T1 construct: made in house
Test: Collagenase 3 (MMP13) enzyme inhibition assay with fluorogenic peptide substrate
Type: biochemical
Conditions: APMA-activated MMP13, 4-5 hours at 35° C., pH 7.5, fluorescence λex 328 nm / λem 393 nm
Method: Collagenase 3 (MMP13) inhibitory activity may be assessed, for example, using the procedure set out below:—
Activity is determined by measuring the fluorescence at λex 328 nm and λem 393 nm.

| SMILES | IC50 |
| --- | --- |
| CC[C@]1(CS(=O)(=O)N2CCC(Oc3ccc(OCC(F)(F)C(F)F)cc3)CC2)NC(=O)NC1=O [Example 10, (5S)-5-ethyl-5-[({4-[4-(2,2,3,3-tetrafluoropropoxy)phenoxy]-piperidin-1-yl}sulphonyl)methyl]imidazolidine-2,4-dione] | 0.7 nM |
| CCC1(CS(=O)(=O)N2CCC(Oc3ccc(OCCC(F)(F)F)cc3)CC2)NC(=O)NC1=O (stereo not drawn) [Example 8] | 5.5 nM |
| CC[C@]1(CS(=O)(=O)N2CCC(Oc3ccc(OC(F)(F)C(F)(F)F)cc3)CC2)NC(=O)NC1=O [Example 6, (5S)-5-ethyl-5-[({4-[4-(pentafluoroethoxy)phenoxy]piperidin-1-yl}sulfonyl)methyl]imidazolidine-2,4-dione] | 13 nM |
| CC[C@]1(CS(=O)(=O)N2CCC(Oc3ccc(OCC(F)(F)F)cc3)CC2)NC(=O)NC1=O [Example 2, (5S)-5-ethyl-5-[({4-[4-(2,2,2-trifluoroethoxy)phenoxy]piperidin-1-yl}sulfonyl)methyl]imidazolidine-2,4-dione] | 8.4 nM |
| CCC1(CS(=O)(=O)N2CCC(Oc3ccc(OC(F)(F)C(F)F)cc3)CC2)NC(=O)NC1=O (stereo not drawn) [Example 4, 5S-ethyl-5-[({4-[4-(1,1,2,2-tetrafluoroethoxy)phenoxy]piperidin-yl}sulfonyl)methyl]imidazolidine-2,4-dione] | 4.9 nM |
| CC[C@]1(CS(=O)(=O)N2CCC(Oc3ccc(OCC(F)(F)C(F)(F)F)cc3)CC2)NC(=O)NC1=O [Example 12, (5S)-5-ethyl-5-[({4-[4-(2,2,3,3,3-pentafluoropropoxy)phenoxy]-piperidin-1-yl}sulphonyl)methyl]imidazolidine-2,4-dione] | 1.9 nM |

Source: patent US8129412B2, “Hydantoin derivatives useful as metalloproteinase inhibitors” (AstraZeneca AB, priority 2004, dated 2012)
